In patent US11241501B2, “Anticancer prodrug for overcoming drug resistance” (Korea University Research and Business Foundation, priority 2018, dated 2022):

Experiments:
MCF7 xenograft tumors = assay: Xenograft tumor study; format: in vivo; conditions: mice, C1 15 mg/kg/d, Dox 2 mg/Kg/d + DCA 50 mg/Kg/d, once every four days
Experimental: (§1) Data represent the mean±SD. *p<0.05.
(§2) To assess tumor target specificity and the organ distribution of C1 in vivo and ex vivo, MCF7 and MCF7/Dox cells were injected subcutaneously into mice. When tumor growth reached a detectable size, the mice were treated with C1 (15 mg/kg/d), doxorubicin (2 mg/Kg/d)+DCA (50 mg/Kg/d), or vehicle (DMSO) by i.v. injection once every 4 days for 30 days. After 15 days of treatment, the animals were euthanized via CO2 asphyxiation. The xenograft tumors were excised and photographed. In vivo fluorescence images of the mice were recorded and quantified using a Maestro2 instrument (excitation and emission wavelengths: 500 and 650 nm, respectively). The fluorescence images and auto-fluorescence were then deconvoluted using the software provided with the instrument (Maestro software ver.2.4, CRi, Woburn, Mass., USA) using the multiexcitation spectral analysis function.
(§3) Five-week-old immunodeficient nude mice (nu/nu) mice (Orient Bio, Inc.) were maintained in pressurized ventilated cages under conditions of repeated controlled illumination (12 h dark; 12 h light) with ad libitum access to sterilized water and food (Cat no: 1314Fort, ALTROMIN company, Germany). MCF-7/Dox cells (1×10^7) in […] PBS were injected subcutaneously into each nude mouse. […] Tumor growth was monitored periodically, and the tumor volume (V) was calculated by using V=½× length×(width)^2. […]

[1] = system: MCF7/Dox xenograft tumors; assay: Xenograft tumor study; format: in vivo; conditions: mice, C1 15 mg/kg/d, Dox 2 mg/Kg/d + DCA 50 mg/Kg/d, once every four days
Experimental: as §1, §2, §3

MCF7 and MCF7/Dox cells [2] = assay: Intracellular accumulation, fluorescence assay; format: cell-based, human; conditions: up to 12 hr after treatment
Experimental: Fluorescence intensities were measured with SpectraMAX 13. Data represent means±SD. **p<0.01. […] Data represent means±SD. **[…]. […] Data represent the mean±SD (n=3 experimental replicates). *p<0.05, **p<0.01. […] MCF7/Dox cells were treated with C1 or C3 as indicated, and the cytosolic (C) and mitochondrial (M) fractions were subjected to immunoblot assay. COX-IV and tubulin were used as markers for the mitochondria and cytosol fractions, respectively.
(§4) Mito-tracker (green) was utilized to show the mitochondria;
To analyze the cellular fluorescence levels upon compound treatment, cells were seeded in plates 1 day before treatment with the compounds. Cells were then treated with each compound for the indicated dose or time course. After the experiment, cells were washed with ice-cold PBS, trypsinized, and centrifuged. The cell pellet was re-suspended in 300 μL of PBS and then analyzed using a multiplate reader (SpectraMAX I3x). The results were normalized according to the number of cells.

HepG2 cells = assay: Confocal intracellular localization with MitoTracker; format: cell-based, human; conditions: HepG2, 5 μM, 24 hr
Experimental: HepG2 cells treated with each compound (5 μM, 24 hr) were co-stained with the mitochondrial marker MitoTracker (green). Boxed regions show co-localization of the test compounds and probe within the mitochondria. […] Experiments were carried out in triplicate and the data shown represent means±SD. **p<0.01. […] HepG2 cells were incubated with BNPP (100 μM) for 2 hr prior to C1 treatment. **p<0.01. […] Cleaved caspase-3 and PARP-1 levels were examined to assess apoptosis induction. C, cleaved.
Cells were seeded on glass chamber slides (Nalgene Nunc) followed by probe treatment. After 48 h, the cells were fixed with 4% formaldehyde, and blocked with 2% bovine serum albumin-PBS for 30 min. The mitochondria were stained using MitoTracker™ Green FM (Invitrogen, USA) for 30 min. Fluorescent images were obtained using a confocal laser scanning microscope (Carl Zeiss MicroImaging, Inc., Germany).

[3] = Hepatotoxicity assay, serum ALT and AST; format: in vivo; conditions: mice bearing MCF7/Dox tumors
Experimental: (§5) Tumors are shown (right). […] C1 injection led to a 58% reduction in tumor growth, which was statistically greater than the reductions seen in the case of C2 (16%), C3 (9%), C4 (6%) and DMSO (0%) tested under otherwise identical conditions.
Blood samples of each mice were centrifuged at 3,000 rpm for 10 min at 4° C. to produce serum. Then, the activities of ALT and AST in serum were analyzed using the AST and ALT Activity Assay Kits (MAK055, MAK052, Sigma) according to the manufacturer's instructions.

MCF7 and MCF7/Dox cells [4] = assay: Mitochondrial localization in MCF7 and MCF7/Dox cells; format: cell-based, human
Description: as §4

[5] = system: MCF7/Dox xenograft tumors; assay: Independent comparative xenograft study of C1-C4; format: in vivo, mice; conditions: n=5 per group, FIG. 23C
Description: as §5

## COc1cccc2c1C(=O)c1c(O)c3c(c(O)c1C2=O)C[C@@](O)(C(=O)CO)C[C@@H]3OC1C[C@H](NC(=O)OC(Cc2cn(CCCCCC[P+](c3ccccc3)(c3ccccc3)c3ccccc3)nn2)c2ccc(NC(=O)C(Cl)Cl)cc2)[C@H](O)[C@H](C)O1.[Br-] (stereo partly shown) [C1]
MCF7 xenograft tumors
  reduction in the tumor volume: approximately 78%
[1]
  reduction in the tumor volume: ~74%
MCF7 and MCF7/Dox cells [2]
  intracellular accumulation in MCF7/Dox versus MCF7: comparable level in both MCF7 and MCF7/Dox cells
HepG2 cells
  intracellular (mitochondrial) localization: located predominantly within the mitochondria
[3]
  toxicity from ALT and AST levels in blood serum: no significant toxicity
MCF7 and MCF7/Dox cells [4]
  mitochondrial localization: exhibited mitochondrial localization in both MCF7 and MCF7/Dox cells
[5]
  reduction in tumor growth: 58%
